Data on one molecule can be found in patent publication US20250002526A1, “PHARMACEUTICAL COMPOSITION HAVING ANTI-CANCER IMMUNOSTIMULATING EFFECT AND/OR IMMUNE CHECKPOINT INHIBITION POTENTIATING EFFECT” (KYUSHU UNIVERSITY, NATIONAL UNIVERSITY CORPORATION, priority 2021, published 2025).

Entries after “also recorded” stand apart in the source; their conditions may differ. Like-named read-outs stand apart in the source and are kept apart here.

One test concerns E0771-SULT-PD-L1 cells. The test is described as follows: In vivo tumor growth of E0771-SULT-PD-L1 cells with anti-PD-L1 antibody treatment. Details: species or system mouse. To be noted: oral cholenoic acid combined with anti-PD-L1 antibody, days 9, 12 and 15 after transplantation. As for the experimental part:
As described later for each experiment, 200 μl of an anti-mouse PD-L1 antibody (10F.9G2, 0.5 mg/ml, BioXCell) or a control of the matched isotype (LTF-2, 0.5 mg/ml, BioXCell) was intraperitoneally injected into tumor-bearing mice (see experimental results (3)).
Cholenoic acid was suspended in 0.5% (w/v) methylcellulose 400 solution (FUJIFILM Wako Pure Chemical Corporation) at a proportion of 50 mg/ml, and a 200-μl portion (10 mg) of the suspension was orally administered to mice (see experimental results (6)). To examine the effect on the tumor infiltration of OTII cells or OTI T cells, 5 mg of cholenoic acid was orally administered three times at intervals of 6 hours in 2 days before the assay. […]
The growth of tumors was monitored by measuring the vertical diameters of each tumor with a caliper twice a week and calculating the tumor volumes from the following expression.

For test [1], the system named is SULT2B1b-mediated CS production in E0771-SULT cells. The test is described as follows: CS production inhibitory effect in E0771-SULT cells (LC/MS/MS quantification of CS). The class given is cell-based, mouse. To be noted: Mus musculus; for activity at 10 µM: relative to control (100%). In a few lines:
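Mouse E0771 breast cancer cells expressing SULT2B1b, seeded at 5×10^5 cells/well and cultured 24 h with or without test compound. CS extracted with deuterated internal standards and quantified by LC/MS/MS (ESI, MRM) against calibration curves. Values are % of CS production in untreated cells.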

For `C[C@H](CCC(=O)O)[C@H]1CC[C@H]2[C@@H]3CC=C4C[C@@H](O)CC[C@]4(C)[C@H]3CC[C@]12C` [Compound 1, (R)-4-((3S,8S,9S,10R,13R,14S,17R)-3-hydroxy-10,13-dimethyl-2,3,4,7,8,9,10,11,12,13,14,15,16,17-tetradecahydro-1H-cyclopenta[a]phenanthren-17-yl)pentanoic acid], in the test on E0771-SULT-PD-L1 cells, the “growth of E0771-SULT-PD-L1 cells (tumor volume)” value is given as “renders E0771-SULT-PD-L1 cells susceptible to immune checkpoint inhibition; also recorded: causes the growth of E0771-SULT-PD-L1 cells (tumor volume) to be suppressed”. The activity at 10 µM in test [1] (24 h, read-out: CS production % activity at 10 μM, E0771-SULT cells, 24 hours, test compound 10 μM (Table 1)) worked out at 35.8%; in test [1] (24 h, read-out: CS production % activity at 10 μM, E0771-SULT cells, 24 hours, third concentration column of Table 1, head again printed 10 μM), 47.1%. Also, in test [1] (24 h, read-out: CS production % activity at 20 μM, E0771-SULT cells, 24 hours, test compound 20 μM, relative to control without compound (100%)), the activity at 20 µM was 30.8%. Moreover, the IC50 in test [1] (read-out: IC50 value (CS production)) turned out to be 5.8 µM.
